In the NIST ThermoML archive (doi:10.1021/je060271a):
Numbers after ± are expanded uncertainties.

Conditions: 303.14 K, Liquid, Vibrating tube method

In the case of `CCCCCCC(=O)OCC(COC(=O)CCCCCC)(COC(=O)CCCCCC)COC(=O)CCCCCC` [pentaerythritol tetraheptanoate], the mass density (163.7 kPa) is reported as 970.9 ± 1.2 kg/m3, the mass density (201.8 kPa) is reported as 970.9 ± 1.2 kg/m3 and the mass density (226 kPa) is reported as 970.8 ± 1.2 kg/m3. For the same molecule, the mass density (241.8 kPa) was 970.9 ± 1.2 kg/m3, the mass density (250.8 kPa) was 970.9 ± 1.2 kg/m3 and the mass density (258.8 kPa) was 970.8 ± 1.2 kg/m3. The mass density (267.9 kPa) was 970.9 ± 1.2 kg/m3, the mass density (279.3 kPa) was 971 ± 1.2 kg/m3 and the mass density (289.8 kPa) was 970.8 ± 1.2 kg/m3. It also gave a mass density (301.4 kPa) of 970.9 ± 1.2 kg/m3, a mass density (315.8 kPa) of 970.9 ± 1.2 kg/m3 and a mass density (328.9 kPa) of 970.9 ± 1.2 kg/m3. It also gave a mass density (342.6 kPa) of 970.8 ± 1.2 kg/m3, a mass density (354.2 kPa) of 971 ± 1.2 kg/m3 and a mass density (366.8 kPa) of 970.9 ± 1.2 kg/m3. For the same molecule, the mass density (380 kPa) was 971 ± 1.2 kg/m3, the mass density (397.2 kPa) was 971 ± 1.2 kg/m3 and the mass density (412.5 kPa) was 971 ± 1.2 kg/m3. The mass density (432.5 kPa) was 970.9 ± 1.2 kg/m3, the mass density (450.7 kPa) was 970.9 ± 1.2 kg/m3 and the mass density (470.3 kPa) was 971 ± 1.2 kg/m3. It also gave a mass density (496.8 kPa) of 971 ± 1.2 kg/m3, a mass density (520.4 kPa) of 971.1 ± 1.2 kg/m3 and a mass density (547 kPa) of 971.1 ± 1.2 kg/m3. For the same molecule, the mass density (581.4 kPa) was 970.9 ± 1.2 kg/m3, the mass density (613 kPa) was 971.2 ± 1.2 kg/m3 and the mass density (645.8 kPa) was 971.1 ± 1.2 kg/m3. The mass density (676.4 kPa) was 971.1 ± 1.2 kg/m3, the mass density (706.7 kPa) was 971.2 ± 1.2 kg/m3 and the mass density (734.4 kPa) was 971.2 ± 1.2 kg/m3. For the same molecule, the mass density (762.1 kPa) was 971.2 ± 1.2 kg/m3, the mass density (785 kPa) was 971.2 ± 1.2 kg/m3 and the mass density (807.4 kPa) was 971.1 ± 1.2 kg/m3. For the same molecule, the mass density (827.2 kPa) was 971.2 ± 1.2 kg/m3, the mass density (847.6 kPa) was 971.2 ± 1.2 kg/m3 and the mass density (869.1 kPa) was 971.2 ± 1.2 kg/m3. It also gave a mass density (895.8 kPa) of 971.3 ± 1.2 kg/m3, a mass density (919.6 kPa) of 971.2 ± 1.2 kg/m3 and a mass density (944.3 kPa) of 971.2 ± 1.2 kg/m3. The mass density (969.8 kPa) was 971.3 ± 1.2 kg/m3, the mass density (1002.7 kPa) was 971.3 ± 1.2 kg/m3 and the mass density (1031.7 kPa) was 971.4 ± 1.2 kg/m3. For the same molecule, the mass density (1063.1 kPa) was 971.4 ± 1.2 kg/m3, the mass density (1101.5 kPa) was 971.3 ± 1.2 kg/m3 and the mass density (1163.5 kPa) was 971.4 ± 1.2 kg/m3. For the same molecule, the mass density (1217.5 kPa) was 971.4 ± 1.2 kg/m3, the mass density (1278.3 kPa) was 971.6 ± 1.2 kg/m3 and the mass density (1312.2 kPa) was 971.5 ± 1.2 kg/m3. For the same molecule, the mass density (1337.9 kPa) was 971.6 ± 1.2 kg/m3, the mass density (1347.4 kPa) was 971.5 ± 1.2 kg/m3 and the mass density (1357.1 kPa) was 971.5 ± 1.2 kg/m3. For the same molecule, the mass density (1376.9 kPa) was 971.5 ± 1.2 kg/m3, the mass density (1461 kPa) was 971.6 ± 1.2 kg/m3 and the mass density (1578.5 kPa) was 971.7 ± 1.2 kg/m3. For the same molecule, the mass density (1661.5 kPa) was 971.6 ± 1.2 kg/m3, the mass density (1692.7 kPa) was 971.7 ± 1.2 kg/m3 and the mass density (1725.9 kPa) was 971.9 ± 1.2 kg/m3. The mass density (1765.8 kPa) was 971.8 ± 1.2 kg/m3, the mass density (1800.2 kPa) was 971.8 ± 1.2 kg/m3 and the mass density (1836.8 kPa) was 971.9 ± 1.2 kg/m3. It also gave a mass density (1873.8 kPa) of 971.9 ± 1.2 kg/m3, a mass density (1919.1 kPa) of 972 ± 1.2 kg/m3 and a mass density (1958.5 kPa) of 971.8 ± 1.2 kg/m3. The mass density (2006.7 kPa) was 971.9 ± 1.2 kg/m3, the mass density (2049 kPa) was 972.1 ± 1.2 kg/m3 and the mass density (2092.9 kPa) was 971.9 ± 1.2 kg/m3. It also gave a mass density (2137.7 kPa) of 972.1 ± 1.2 kg/m3, a mass density (2193.4 kPa) of 972 ± 1.2 kg/m3 and a mass density (2240.2 kPa) of 972.1 ± 1.2 kg/m3. The mass density (2293.3 kPa) was 972.3 ± 1.2 kg/m3, the mass density (2315.9 kPa) was 972.1 ± 1.2 kg/m3 and the mass density (2329.2 kPa) was 972.2 ± 1.2 kg/m3. It also gave a mass density (2344.7 kPa) of 972.2 ± 1.2 kg/m3, a mass density (2358.2 kPa) of 972.3 ± 1.2 kg/m3 and a mass density (2371.9 kPa) of 972.1 ± 1.2 kg/m3. For the same molecule, the mass density (2388.4 kPa) was 972.3 ± 1.2 kg/m3, the mass density (2402.1 kPa) was 972.3 ± 1.2 kg/m3 and the mass density (2416.3 kPa) was 972.3 ± 1.2 kg/m3. The mass density (2433 kPa) was 972.3 ± 1.2 kg/m3, the mass density (2447.2 kPa) was 972.3 ± 1.2 kg/m3 and the mass density (2464.4 kPa) was 972.2 ± 1.2 kg/m3. For the same molecule, the mass density (2478.9 kPa) was 972.3 ± 1.2 kg/m3, the mass density (2494 kPa) was 972.2 ± 1.2 kg/m3 and the mass density (2508.9 kPa) was 972.2 ± 1.2 kg/m3. It also gave a mass density (2528 kPa) of 972.2 ± 1.2 kg/m3, a mass density (2539.8 kPa) of 972.2 ± 1.2 kg/m3 and a mass density (2558.1 kPa) of 972.4 ± 1.2 kg/m3. It also gave a mass density (2573.1 kPa) of 972.3 ± 1.2 kg/m3, a mass density (2592.1 kPa) of 972.3 ± 1.2 kg/m3 and a mass density (2607.7 kPa) of 972.4 ± 1.2 kg/m3. For the same molecule, the mass density (2623.3 kPa) was 972.3 ± 1.2 kg/m3, the mass density (2639.6 kPa) was 972.3 ± 1.2 kg/m3 and the mass density (2658.8 kPa) was 972.5 ± 1.2 kg/m3. For the same molecule, the mass density (2675.1 kPa) was 972.3 ± 1.2 kg/m3, the mass density (2691.8 kPa) was 972.4 ± 1.2 kg/m3 and the mass density (2711.7 kPa) was 972.4 ± 1.2 kg/m3. The mass density (2728.4 kPa) was 972.4 ± 1.2 kg/m3, the mass density (2745.4 kPa) was 972.5 ± 1.2 kg/m3 and the mass density (2766 kPa) was 972.5 ± 1.2 kg/m3. For the same molecule, the mass density (2783.2 kPa) was 972.6 ± 1.2 kg/m3, the mass density (2800.7 kPa) was 972.5 ± 1.2 kg/m3 and the mass density (2821.5 kPa) was 972.6 ± 1.2 kg/m3. It also gave a mass density (2839.7 kPa) of 972.5 ± 1.2 kg/m3, a mass density (2857.4 kPa) of 972.6 ± 1.2 kg/m3 and a mass density (2879.2 kPa) of 972.5 ± 1.2 kg/m3. It also gave a mass density (2897.6 kPa) of 972.5 ± 1.2 kg/m3, a mass density (2916.3 kPa) of 972.5 ± 1.2 kg/m3 and a mass density (2935.4 kPa) of 972.5 ± 1.2 kg/m3. It also gave a mass density (2957.6 kPa) of 972.5 ± 1.2 kg/m3, a mass density (2976.7 kPa) of 972.5 ± 1.2 kg/m3 and a mass density (2995.9 kPa) of 972.5 ± 1.2 kg/m3. It also gave a mass density (3019.1 kPa) of 972.7 ± 1.2 kg/m3.
